# Experiments:
# [1] = biological target: T1, 5-hydroxytryptamine receptor 3A (Rattus norvegicus, UniProt P35563)
# T1 sequence (P35563 whole entry): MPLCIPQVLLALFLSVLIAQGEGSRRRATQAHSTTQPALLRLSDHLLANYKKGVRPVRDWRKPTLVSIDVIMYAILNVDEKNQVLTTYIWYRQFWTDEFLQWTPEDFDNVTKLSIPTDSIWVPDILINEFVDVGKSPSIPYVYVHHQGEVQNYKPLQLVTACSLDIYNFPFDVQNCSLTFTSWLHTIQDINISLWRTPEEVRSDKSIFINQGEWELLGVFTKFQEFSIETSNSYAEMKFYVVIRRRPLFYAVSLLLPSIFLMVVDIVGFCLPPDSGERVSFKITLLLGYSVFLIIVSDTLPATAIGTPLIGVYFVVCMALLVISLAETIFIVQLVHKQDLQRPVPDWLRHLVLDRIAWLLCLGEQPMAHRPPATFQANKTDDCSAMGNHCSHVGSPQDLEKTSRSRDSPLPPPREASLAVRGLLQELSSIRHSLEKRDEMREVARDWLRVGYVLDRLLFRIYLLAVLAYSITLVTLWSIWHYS
# [2] = biological target: Beta-2 adrenergic receptor (Rattus norvegicus, UniProt P10608)
# Beta-2 adrenergic receptor, sequence (P10608 whole entry): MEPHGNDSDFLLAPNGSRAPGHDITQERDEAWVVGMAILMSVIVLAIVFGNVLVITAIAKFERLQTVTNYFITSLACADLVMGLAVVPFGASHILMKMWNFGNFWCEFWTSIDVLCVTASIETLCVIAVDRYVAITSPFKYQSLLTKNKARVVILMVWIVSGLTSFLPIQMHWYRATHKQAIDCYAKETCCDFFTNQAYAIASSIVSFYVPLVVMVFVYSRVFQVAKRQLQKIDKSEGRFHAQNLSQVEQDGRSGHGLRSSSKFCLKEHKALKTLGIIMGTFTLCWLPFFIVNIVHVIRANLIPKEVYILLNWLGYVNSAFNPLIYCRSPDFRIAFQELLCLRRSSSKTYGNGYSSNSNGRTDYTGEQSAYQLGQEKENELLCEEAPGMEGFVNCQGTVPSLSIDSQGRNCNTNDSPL
# [3] = biological target: Gamma-aminobutyric acid receptor subunit alpha-1 (Rattus norvegicus, UniProt P62813)
# Gamma-aminobutyric acid receptor subunit alpha-1, sequence (P62813 whole entry): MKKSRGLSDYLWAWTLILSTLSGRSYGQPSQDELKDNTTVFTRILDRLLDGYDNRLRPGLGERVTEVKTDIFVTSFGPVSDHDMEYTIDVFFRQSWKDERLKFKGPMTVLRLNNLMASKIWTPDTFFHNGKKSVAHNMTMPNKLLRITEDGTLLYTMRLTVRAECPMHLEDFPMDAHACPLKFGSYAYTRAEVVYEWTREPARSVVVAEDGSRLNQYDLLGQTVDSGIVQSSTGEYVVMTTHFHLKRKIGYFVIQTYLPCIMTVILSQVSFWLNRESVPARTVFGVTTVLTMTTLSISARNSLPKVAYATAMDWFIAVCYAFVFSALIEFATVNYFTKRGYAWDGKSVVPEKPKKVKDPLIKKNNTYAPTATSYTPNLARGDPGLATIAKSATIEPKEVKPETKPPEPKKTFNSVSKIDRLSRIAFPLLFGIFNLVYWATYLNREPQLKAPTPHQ
# [4] = biological target: 5-hydroxytryptamine receptor 2A (Rattus norvegicus, UniProt P14842)
# 5-hydroxytryptamine receptor 2A, sequence (P14842 whole entry): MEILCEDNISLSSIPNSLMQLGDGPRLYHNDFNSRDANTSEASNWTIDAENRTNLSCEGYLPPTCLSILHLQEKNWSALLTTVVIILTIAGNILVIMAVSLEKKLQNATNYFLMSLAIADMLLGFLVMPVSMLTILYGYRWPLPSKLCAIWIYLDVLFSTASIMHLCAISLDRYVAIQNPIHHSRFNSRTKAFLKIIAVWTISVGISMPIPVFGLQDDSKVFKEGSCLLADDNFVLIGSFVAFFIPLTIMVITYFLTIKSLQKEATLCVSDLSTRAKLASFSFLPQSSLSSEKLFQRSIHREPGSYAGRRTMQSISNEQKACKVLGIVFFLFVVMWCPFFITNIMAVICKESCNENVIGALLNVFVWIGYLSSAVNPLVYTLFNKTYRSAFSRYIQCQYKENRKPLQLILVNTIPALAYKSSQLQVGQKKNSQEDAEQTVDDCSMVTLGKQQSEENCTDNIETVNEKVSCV
# [5] = biological target: T2, 5-hydroxytryptamine receptor 1A (Rattus norvegicus, UniProt P19327)
# T2 sequence (P19327 whole entry): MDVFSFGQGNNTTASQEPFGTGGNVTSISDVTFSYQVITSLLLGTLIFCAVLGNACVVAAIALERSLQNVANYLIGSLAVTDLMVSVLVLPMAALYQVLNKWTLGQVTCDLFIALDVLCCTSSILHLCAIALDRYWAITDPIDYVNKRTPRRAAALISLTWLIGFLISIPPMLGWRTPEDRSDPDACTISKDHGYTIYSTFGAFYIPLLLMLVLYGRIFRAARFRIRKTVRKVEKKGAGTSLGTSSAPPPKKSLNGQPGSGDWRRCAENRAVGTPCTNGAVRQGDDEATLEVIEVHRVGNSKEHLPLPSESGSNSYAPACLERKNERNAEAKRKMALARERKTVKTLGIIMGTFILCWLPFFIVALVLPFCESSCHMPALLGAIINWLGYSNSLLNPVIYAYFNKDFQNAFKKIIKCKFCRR
# [6] = biological target: T3, Alpha-1A adrenergic receptor (Rattus norvegicus, UniProt P43140)
# T3 sequence (P43140 whole entry): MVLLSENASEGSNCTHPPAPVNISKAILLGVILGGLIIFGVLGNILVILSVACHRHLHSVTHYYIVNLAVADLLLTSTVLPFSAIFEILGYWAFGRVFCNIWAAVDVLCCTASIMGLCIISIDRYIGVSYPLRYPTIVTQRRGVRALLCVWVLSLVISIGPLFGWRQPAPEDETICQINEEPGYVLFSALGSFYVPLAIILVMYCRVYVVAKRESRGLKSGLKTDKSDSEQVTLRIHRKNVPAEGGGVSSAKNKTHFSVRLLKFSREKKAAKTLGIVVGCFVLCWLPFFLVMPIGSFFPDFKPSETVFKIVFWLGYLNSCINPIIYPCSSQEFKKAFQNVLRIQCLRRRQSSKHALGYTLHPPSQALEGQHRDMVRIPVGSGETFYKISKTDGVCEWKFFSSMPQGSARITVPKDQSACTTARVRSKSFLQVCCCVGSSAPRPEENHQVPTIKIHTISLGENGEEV
# [7] = biological target: T4, Alpha-2C adrenergic receptor (Rattus norvegicus, UniProt P22086)
# T4 sequence (P22086 whole entry): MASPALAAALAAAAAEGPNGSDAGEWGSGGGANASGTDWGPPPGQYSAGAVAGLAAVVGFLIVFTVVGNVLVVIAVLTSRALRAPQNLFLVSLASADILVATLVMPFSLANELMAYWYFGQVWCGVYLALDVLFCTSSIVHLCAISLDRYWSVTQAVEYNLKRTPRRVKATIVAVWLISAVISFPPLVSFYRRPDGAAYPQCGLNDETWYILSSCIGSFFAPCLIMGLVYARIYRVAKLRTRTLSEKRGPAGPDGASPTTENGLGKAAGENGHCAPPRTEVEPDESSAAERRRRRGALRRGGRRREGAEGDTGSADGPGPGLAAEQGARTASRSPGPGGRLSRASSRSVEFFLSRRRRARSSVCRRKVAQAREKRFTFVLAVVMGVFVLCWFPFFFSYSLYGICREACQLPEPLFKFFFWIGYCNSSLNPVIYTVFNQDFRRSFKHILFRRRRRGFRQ
# [8] = biological target: T5, Muscarinic acetylcholine receptor M2 (Rattus norvegicus, UniProt P10980)
# T5 sequence (P10980 whole entry): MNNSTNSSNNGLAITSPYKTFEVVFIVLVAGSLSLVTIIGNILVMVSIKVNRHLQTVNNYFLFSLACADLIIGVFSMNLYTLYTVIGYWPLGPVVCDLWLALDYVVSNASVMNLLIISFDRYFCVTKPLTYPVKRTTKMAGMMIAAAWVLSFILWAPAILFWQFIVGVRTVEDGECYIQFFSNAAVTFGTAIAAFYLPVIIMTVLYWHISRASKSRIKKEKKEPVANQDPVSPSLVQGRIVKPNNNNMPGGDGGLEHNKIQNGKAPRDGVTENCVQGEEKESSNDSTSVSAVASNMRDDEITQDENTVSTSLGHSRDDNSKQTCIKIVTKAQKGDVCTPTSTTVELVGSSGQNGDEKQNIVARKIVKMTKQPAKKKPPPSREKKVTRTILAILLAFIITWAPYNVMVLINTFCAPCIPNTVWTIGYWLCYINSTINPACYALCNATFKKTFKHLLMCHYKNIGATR
# [9] = biological target: 5-hydroxytryptamine receptor 1B (Rattus norvegicus, UniProt P28564)
# 5-hydroxytryptamine receptor 1B, sequence (P28564 whole entry): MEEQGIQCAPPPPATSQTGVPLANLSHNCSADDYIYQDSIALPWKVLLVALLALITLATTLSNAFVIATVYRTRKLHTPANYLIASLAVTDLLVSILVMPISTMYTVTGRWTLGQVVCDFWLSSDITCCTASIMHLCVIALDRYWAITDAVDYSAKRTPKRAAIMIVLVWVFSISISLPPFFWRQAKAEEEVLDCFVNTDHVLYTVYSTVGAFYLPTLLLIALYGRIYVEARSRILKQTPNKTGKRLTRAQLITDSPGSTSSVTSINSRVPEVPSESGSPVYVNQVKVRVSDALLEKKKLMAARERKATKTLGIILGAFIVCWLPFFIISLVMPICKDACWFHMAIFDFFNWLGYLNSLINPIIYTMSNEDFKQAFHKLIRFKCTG
# [10] = biological target: T6, Solute carrier family 22 member 2 (Rattus norvegicus, UniProt Q9R0W2)
# T6 sequence (Q9R0W2 whole entry): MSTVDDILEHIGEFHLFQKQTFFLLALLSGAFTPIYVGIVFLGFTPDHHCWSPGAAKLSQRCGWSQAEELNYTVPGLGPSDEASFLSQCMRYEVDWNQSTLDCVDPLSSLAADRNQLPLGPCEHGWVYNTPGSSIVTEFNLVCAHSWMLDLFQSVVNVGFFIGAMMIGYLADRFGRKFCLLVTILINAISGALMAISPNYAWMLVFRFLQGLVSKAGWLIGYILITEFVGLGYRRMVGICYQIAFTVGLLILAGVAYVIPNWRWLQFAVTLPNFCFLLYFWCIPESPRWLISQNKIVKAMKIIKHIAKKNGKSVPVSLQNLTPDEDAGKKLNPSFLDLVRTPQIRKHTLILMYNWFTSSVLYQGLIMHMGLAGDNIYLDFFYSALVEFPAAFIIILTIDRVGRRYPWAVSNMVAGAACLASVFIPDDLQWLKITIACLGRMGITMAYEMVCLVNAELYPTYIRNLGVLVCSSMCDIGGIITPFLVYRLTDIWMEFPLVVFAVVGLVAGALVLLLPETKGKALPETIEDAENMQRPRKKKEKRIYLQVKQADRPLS
# [11] = biological target: T7, Solute carrier family 22 member 1 (Rattus norvegicus, UniProt Q63089)
# T7 sequence (Q63089 whole entry): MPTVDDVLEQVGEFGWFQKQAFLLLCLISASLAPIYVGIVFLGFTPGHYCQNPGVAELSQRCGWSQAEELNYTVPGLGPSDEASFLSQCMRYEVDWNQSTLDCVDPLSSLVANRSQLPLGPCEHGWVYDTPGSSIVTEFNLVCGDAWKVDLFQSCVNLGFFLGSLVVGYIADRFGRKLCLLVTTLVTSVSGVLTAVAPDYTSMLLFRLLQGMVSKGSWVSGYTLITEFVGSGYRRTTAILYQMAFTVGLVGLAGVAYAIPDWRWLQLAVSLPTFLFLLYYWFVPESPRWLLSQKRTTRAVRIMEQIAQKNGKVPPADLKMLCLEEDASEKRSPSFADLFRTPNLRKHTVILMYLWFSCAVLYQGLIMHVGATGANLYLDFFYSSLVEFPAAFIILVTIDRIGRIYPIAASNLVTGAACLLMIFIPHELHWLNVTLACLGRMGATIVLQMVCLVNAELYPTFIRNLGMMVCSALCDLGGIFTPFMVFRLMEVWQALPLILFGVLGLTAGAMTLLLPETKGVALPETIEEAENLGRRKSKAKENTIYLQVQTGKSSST
Structure (SMILES),Ki [1] [nM],other results
c1cnc(N2CCNCC2)nc1 [1-PP],4000,
COc1cccc2ccc(N3CCN(C)CC3)nc12 [8-Methoxy-N-methylquipazine],440,
"Clc1cncc(N2CCNCC2)n1 [L-630,571]",29,
COc1ccc(N2CCNCC2)cc1 [4-METHOXYPHENYLPIPERAZINE],340,
c1ccc2nc(N3CCCCC3)ccc2c1,1000,
CCCN1CCN(c2ccc3ccccc3n2)CC1 [N-Propylquipazine],15,
Clc1cccc(N2CCNCC2)c1 [mCPP],20,
COc1cccc2ccc(N3CCNCC3)nc12,360,
c1ccc(N2CCNCC2)cc1,430,
COc1ccccc1N1CCNCC1,324,
c1ccc2c(N3CCNCC3)cccc2c1,110,
CN(C)C[C@@H]1C2CCC(CC2)[C@@H]1c1ccc(Cl)c(Cl)c1 [NSC_398],30,
Clc1ccc(N2CCNCC2)cc1,120,
"Cc1cccc2ccc(N3CCNCC3)nc12 [QUIPAZINE,8-Me]",4.7,Ki [2]: > 10000 nM; Ki [3]: > 10000 nM; Ki [4]: 550 nM; Ki [5]: 1700 nM; Ki [6]: > 10000 nM; Ki [7]: 3800 nM; Ki [8]: > 10000 nM; Ki [9]: > 10000 nM
c1ccc(C2CCNCC2)cc1,440,
CN1CCN(c2nc3ccccc3c(=O)[nH]2)CC1 [NSC_63211],270,
c1ccc2nc(N3CCNCC3)ccc2c1 [2-Piperazin-1-yl-quinoline (Quipazine)],1.5,Ki [2]: 2900 nM; Ki [4]: 180 nM; Ki [10]: 5000 nM; Ki [11]: > 10000 nM; Ki [8]: > 10000 nM; Ki [9]: 200 nM
CCCN(CCC)c1ccc2ccccc2n1,1000,
